Results taken from patent US8703811B2, “Small molecule inhibitors of Plasmodium falciparum dihydroorotate dehydrogenase” (Genzyme Corporation, priority 2008, dated 2014).

Columns and labels:
pfDHODH [1] = molecular target: T1, pfDHODH (Plasmodium falciparum (isolate 3D7), UniProt Q08210); assay: DHODH chromogen reduction (DCIP) assay, pfDHODH; type: biochemical, P. falciparum; conditions: 200 μM L-DHO
P. falciparum HB3 = assay: Inhibition of in vitro P. falciparum culture, [3H]-hypoxanthine uptake, HB3; type: cell-based; conditions: Plasmodium falciparum, HB3, Erythrocyte; [3H]-hypoxanthine uptake by parasite infected erythrocytes; read-out: HB3 IC50
Procedure: (§1) P. falciparum strains D10, 3D7, HB3, and Dd2 were obtained from the Malaria Research and Reference Reagent Resource Center (Manassas, Va.). The parasite strains were maintained in vitro by method of Trager and Jensen. The inhibition of P. falciparum growth in the presence of drug was assessed by the relative reduction of [^3H]-hypoxanthine uptake as previously described. Inhibition data were fitted to Equation 1 using non-linear regression analysis except that the relative velocity of parasite growth was substituted for the rate of product formation.

P. falciparum D10 = assay: Inhibition of in vitro P. falciparum culture, [3H]-hypoxanthine uptake, D10; type: cell-based; conditions: Plasmodium falciparum, D10, Erythrocyte; [3H]-hypoxanthine uptake by parasite infected erythrocytes; read-out: D10 IC50
Procedure: as §1

hsDHODH = hsDHODH (Homo sapiens (Human), UniProt Q02127); assay: DCIP assay, hsDHODH; type: biochemical; conditions: DCIP assay; 200 μM L-DHO, 18 μM CoQD, 100 μM DCIP, 20 nM enzyme; read-out: hsDHODH IC50
[2] = tested on: P. falciparum D10-scDHODH; assay: Inhibition of transgenic D10-scDHODH parasites, [3H]-hypoxanthine uptake; type: cell-based
Procedure: as §1
Transgenic parasites expressing scDHODH were generated as described by Painter et al. except that full length scDHODH was cloned directly into the pGem3Z vector without a GFP tag. The resultant plasmid was transfected into ring stages of P. falciparum D10 by electroporation and maintained in culture using standard methods under the selection of WR99210.

P. falciparum 3D7 = assay: Inhibition of in vitro P. falciparum culture, [3H]-hypoxanthine uptake, 3D7; type: cell-based; conditions: Plasmodium falciparum, 3D7, Erythrocyte; [3H]-hypoxanthine uptake by parasite infected erythrocytes; read-out: 3D7 IC50
Summary of the method: (§2)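 Parasite growth inhibition measured as relative reduction of [3H]-hypoxanthine uptake in in vitro cultures. Values from non-linear regression fit, using relative growth velocity in place of product-formation rate.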

P. falciparum Dd2 = assay: Inhibition of in vitro P. falciparum culture, [3H]-hypoxanthine uptake, Dd2; type: cell-based; conditions: Plasmodium falciparum, DD2, Erythrocyte, [3H]-hypoxanthine uptake by parasite infected erythrocytes; read-out: Dd2 IC50
Summary of the method: as §2

[3] = Renal Proximal Tubule Epithelial Cell Toxicity Screen; type: cell-based
Procedure: The Renal Proximal Tubule Epithelial Cell Toxicity Screen is designed to determine whether compound mixtures, breakouts or single compounds are toxic to normal renal epithelial cells. […] Basically, the screen consists of plating renal epithelial cells, exposing them to the desired compound(s) for 4 days and measuring cell viability using the Alamar Blue reagent.
Harvested Kidney Epithelial cells were diluted in REGM to 1.5×10^4 cells/mL. […] NOTE: One plate, the T=0 plate required that 20-30 wells be seeded, and all the other plates had 96 wells seeded. Plates were incubated in 37° C./5% CO2 incubator for 24 hours.
(§3) Alamar Blue solution (25 μL/well) was added to the T=0 plate and mixed. The plate was incubated in 37° C./5% CO2 incubator for 4 hours, mixed and then the fluorescence was measured. 10% Tween 20 stock (10 μL) was added into rows A-D in column 1 (positive control). DMSO (0.5 μL) was added into column 2 (negative control). Compounds were placed into designated wells for desired testing as follows:
Plates were mixed on the shaker, and then incubated in 37° C./5% CO2 incubator for 96 hours. Day 6:
Alamar Blue solution (25 μL/well) was added to the plates containing the compounds and mixed. Plates were incubated in 37° C./5% CO2 incubator for 4 hours, mixed and the fluorescence was measured.

[4] = Normal Human Dermal Fibroblast Toxicity Screen; type: cell-based; conditions: human, normal human dermal fibroblasts; four days exposure, Alamar Blue; read-out: Dermal Fibroblast LC50
Procedure: The Normal Human Dermal Fibroblast Toxicity Screen Protocol is designed to determine whether compound mixtures, breakouts or single compounds are toxic to normal human dermal fibroblasts. The screen involves plating the dermal fibroblasts and then exposing them to the compounds for four days, then cell viability is measured using Alamar Blue reagent.
Harvested Dermal Fibroblast cells were diluted in Growth Media to 0.25 to 0.3×10^5 cells/mL. […] NOTE: One plate, the T=0 plate required that 20-30 wells be seeded and all the other plates had 96 wells seeded. Plates were incubated in 37° C./5% CO2 incubator for 24 hours.
as §3, with “the plate was agitated.” for “mixed.”, “plate” for “plate was incubated”, “incubator was incubated” for “incubator”, “3” for “4”, “agitated the” for “mixed”, “and” for “and then”
Plates were mixed on the shaker, then incubated in 37° C./5% CO2 incubator for 96 hours.
Alamar Blue solution (25 μL/well) was added to the plates containing the compounds, and the plates were agitated. The plates were incubated in 37° C./5% CO2 incubator for 3 hours, agitated and then the fluorescence was measured.

scDHODH = scDHODH (Saccharomyces cerevisiae (strain ATCC 204508 / S288c) (Baker's yeast), UniProt P28272); assay: DCIP assay with fumarate, scDHODH; type: biochemical; conditions: 115 μM fumarate in lieu of CoQD
pfDHODH [5] = molecular target: T1, pfDHODH; assay: pfDHODH activity with FeCy as electron acceptor; conditions: read-out: % Inhibition of Product Formation Rate with 50 μM Inhibitor, FeCy
Procedure: Inhibitors of DHODH, as classified by the chromogen reduction assay, were also evaluated for activity using FeCy as an electron acceptor. A final concentration of 5-50 nM DHODH, 200 μM L-DHO and 100 μM FeCy in Buffer C was used in this assay. Both the reduction of FeCy and the formation of orotate was monitored at 420 nm (ε420=1 mM^−1 cm^−1) and 290 nm (ε280=2 mM^−1 cm^−1), respectively, noting that two molecules of FeCy are reduced for one molecule of L-DHO. As with the previous assays, the reaction was performed at 25° C. and initiated with the addition of enzyme.

pvDHODH = pvDHODH (Plasmodium vivax, UniProt A5K1N1); assay: DCIP assay, pvDHODH; type: biochemical, P. vivax; conditions: 200 μM L-DHO, 18 μM CoQD, 100 μM DCIP, 20 nM enzyme
From the text: (§4) Type 2 DHODH activity was monitored with either the direct assay measuring the formation of orotate or via a chromogen reduction assay using DCIP. Although the extinction coefficient and absorption wavelength are preferable for the chromogen reduction assay, the inorganic electron acceptor DCIP can be utilized by DHODH as the final electron acceptor in lieu of CoQn when the endogenous substrate is at a low concentration. As such, the direct assay was used to measure the binding affinity of pfDHODH to CoQD and L-DHO. The enzymatic reaction was performed by varying the L-DHO concentration (1-400 μM) or CoQD concentration (1-200 μM) while keeping the other substrate constant and in excess. The formation of orotate was measured continuously at 296 nm (ε296=4.3 mM^−1 cm^−1). Inhibition of DHODH by small molecules was evaluated using the chromogen based assay with a final substrate concentration of 200 μM L-DHO, 18 μM CoQD, and 100 μM DCIP, unless otherwise noted. The reduction of DCIP was monitored at 600 nm (ε600=18.8 mM^−1 cm^−1).
(§5) Substrate specificity and enzyme inhibition data was analyzed with GraphPad Prism Version 4 for Windows (GraphPad Software). Kinetic constants were calculated by non-linear regression fitting of the data to the Michaelis-Menten equation [36]. IC50 values were determined by non-linear regression fitting of the data to Equation 1: […]

pbDHODH = pbDHODH (Plasmodium berghei, UniProt A0A509AEH5); assay: DCIP assay, pbDHODH; type: biochemical, P. berghei; conditions: 200 μM L-DHO, 18 μM CoQD, 100 μM DCIP, 20 nM enzyme
From the text: as §4, §5

T1 sequence (Q08210 159-565 limits assumed): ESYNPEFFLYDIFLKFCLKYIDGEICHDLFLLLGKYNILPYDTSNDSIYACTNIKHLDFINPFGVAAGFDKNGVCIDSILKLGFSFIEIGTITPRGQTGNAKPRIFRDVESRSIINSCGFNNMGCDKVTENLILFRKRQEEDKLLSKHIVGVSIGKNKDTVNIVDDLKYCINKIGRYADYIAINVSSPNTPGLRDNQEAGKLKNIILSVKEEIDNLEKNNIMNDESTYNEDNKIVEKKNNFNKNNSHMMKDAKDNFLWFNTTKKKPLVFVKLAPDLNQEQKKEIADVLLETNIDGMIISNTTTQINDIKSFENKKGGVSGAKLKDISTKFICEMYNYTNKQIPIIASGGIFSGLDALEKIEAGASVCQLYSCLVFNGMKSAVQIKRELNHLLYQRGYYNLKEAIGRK
Sequence of hsDHODH (Q02127 29-395 limits assumed): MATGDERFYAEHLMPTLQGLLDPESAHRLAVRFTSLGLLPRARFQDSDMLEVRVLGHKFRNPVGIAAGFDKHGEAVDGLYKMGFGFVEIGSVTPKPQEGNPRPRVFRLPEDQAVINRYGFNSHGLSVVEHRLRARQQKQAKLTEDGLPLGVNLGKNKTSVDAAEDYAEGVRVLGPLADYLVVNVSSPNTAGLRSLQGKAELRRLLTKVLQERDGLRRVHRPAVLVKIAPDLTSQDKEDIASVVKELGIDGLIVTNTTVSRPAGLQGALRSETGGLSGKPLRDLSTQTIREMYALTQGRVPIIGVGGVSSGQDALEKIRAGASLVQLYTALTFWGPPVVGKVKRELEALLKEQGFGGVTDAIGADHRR
Sequence of scDHODH (P28272 whole entry): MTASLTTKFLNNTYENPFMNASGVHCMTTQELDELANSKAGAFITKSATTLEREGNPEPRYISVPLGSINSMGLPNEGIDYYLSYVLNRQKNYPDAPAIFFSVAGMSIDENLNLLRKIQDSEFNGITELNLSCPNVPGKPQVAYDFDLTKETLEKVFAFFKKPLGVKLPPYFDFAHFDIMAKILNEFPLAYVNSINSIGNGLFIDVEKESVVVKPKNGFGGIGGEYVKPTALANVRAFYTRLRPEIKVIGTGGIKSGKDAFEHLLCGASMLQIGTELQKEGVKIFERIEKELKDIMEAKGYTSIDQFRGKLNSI
Sequence of pvDHODH (A5K1N1 1-572): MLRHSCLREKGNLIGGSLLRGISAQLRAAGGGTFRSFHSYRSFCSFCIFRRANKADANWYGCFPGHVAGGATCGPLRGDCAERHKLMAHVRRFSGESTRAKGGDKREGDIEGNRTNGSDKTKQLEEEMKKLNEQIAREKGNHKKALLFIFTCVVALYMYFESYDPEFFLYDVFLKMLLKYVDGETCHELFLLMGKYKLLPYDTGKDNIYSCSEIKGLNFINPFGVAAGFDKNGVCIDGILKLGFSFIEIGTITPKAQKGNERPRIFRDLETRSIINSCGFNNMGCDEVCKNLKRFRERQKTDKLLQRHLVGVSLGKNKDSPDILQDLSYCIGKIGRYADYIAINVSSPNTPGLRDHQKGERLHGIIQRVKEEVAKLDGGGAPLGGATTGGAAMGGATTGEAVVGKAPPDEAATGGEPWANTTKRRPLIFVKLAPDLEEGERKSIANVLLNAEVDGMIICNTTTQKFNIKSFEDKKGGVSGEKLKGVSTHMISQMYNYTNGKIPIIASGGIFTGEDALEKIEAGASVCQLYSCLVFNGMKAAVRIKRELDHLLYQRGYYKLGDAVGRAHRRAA
Sequence of pbDHODH (A0A509AEH5 1-517): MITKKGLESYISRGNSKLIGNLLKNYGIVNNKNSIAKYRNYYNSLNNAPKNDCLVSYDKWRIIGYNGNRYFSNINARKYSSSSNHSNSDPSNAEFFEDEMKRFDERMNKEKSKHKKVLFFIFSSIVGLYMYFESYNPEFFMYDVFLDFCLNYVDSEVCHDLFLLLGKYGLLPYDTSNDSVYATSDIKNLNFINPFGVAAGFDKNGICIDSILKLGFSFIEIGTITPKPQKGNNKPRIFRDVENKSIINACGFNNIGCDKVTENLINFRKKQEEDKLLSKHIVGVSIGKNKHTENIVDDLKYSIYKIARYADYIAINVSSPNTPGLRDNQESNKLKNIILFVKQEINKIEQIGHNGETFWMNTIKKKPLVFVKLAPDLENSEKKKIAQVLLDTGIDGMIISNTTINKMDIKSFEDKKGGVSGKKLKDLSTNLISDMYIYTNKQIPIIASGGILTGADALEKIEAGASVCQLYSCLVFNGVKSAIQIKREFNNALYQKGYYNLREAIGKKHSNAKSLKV

O=C(NC1CC1)c1ccc(N2CCSc3ccccc32)s1 [Compound 5, 5(2H-benzo[b][1,4]thiazin-4(3H)-yl)-N-cyclopropylthiophene-2-carboxamide]
inhibition at 50 µM (pfDHODH [1]; 50 μM inhibitor, 100 μM CoQD, 60 μM DCIP, read-out: % Inhibition of Product Formation Rate with 50 μM Inhibitor, CoQD): 97%
IC50 (pfDHODH [1]; DCIP assay, 18 μM CoQD, 100 μM DCIP, 20 nM enzyme, read-out: pfDHODH IC50): 250 ± 30 nM
IC50 (P. falciparum HB3): 910 nM
IC50 (P. falciparum D10): 950 nM
IC50 (hsDHODH): 7900 ± 400 nM
IC50 ([2]; Plasmodium falciparum, D10, read-out: D10-scDHODH IC50): > 10000 nM
efficacy against D10-scDHODH strain compared to D10 parent strain ([2]; dose-effect curves, FIG. 5): significantly reduced
IC50 (P. falciparum 3D7): 890 nM
IC50 (P. falciparum Dd2): 620 nM
CC50 at 96 h [3]: > 62000 nM
CC50 at 96 h [4]: > 62000 nM
IC50 (scDHODH): > 10000 nM
inhibition at 50 µM (pfDHODH [5]): 23%
IC50 (pvDHODH): 280 ± 10 nM
IC50 (pbDHODH): 380 ± 60 nM
